PubChem BioAssay (NCI)
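Grown in 96-well plates, cells were treated for 48 hours with each compound at five concentrations. Insufficient inhibition: endpoint recorded as highest concentration tested. Abbreviation: GI50, concentration required for 50% inhibition of growth. TGI denotes the concentration required for complete inhibition of growth.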

Experiments:
Assay in all cases: NCI anticancer screen, dose series, 48 h
[1] = system: A498 renal
[2] = system: A549 NSCLC
[3] = system: ACHN renal
[4] = system: BT-549 breast
[5] = system: COLO 205 colon
[6] = system: DU-145 prostate
[7] = system: HCC-2998 colon
[8] = system: HCT-116 colon
[9] = system: HOP-62 NSCLC
[10] = system: HOP-92 NSCLC
[11] = system: HS 578T breast
[12] = system: HT29 colon
[13] = system: KM12 colon
[14] = system: LOX IMVI melanoma
[15] = system: M14 melanoma
[16] = system: MALME-3M melanoma
[17] = system: MDA-MB-435
[18] = system: NCI-H226 lung
[19] = system: NCI-H23 lung
[20] = system: NCI-H460 lung
[21] = system: NCI-H522 lung
[22] = system: NCI/ADR-RES ovarian
[23] = system: OVCAR-3 ovarian
[24] = system: OVCAR-4 ovarian
[25] = system: OVCAR-5 ovarian
[26] = system: OVCAR-8 ovarian
[27] = system: SF-268 CNS
[28] = system: SF-539 CNS
[29] = system: SK-MEL-2 melanoma
[30] = system: SK-MEL-28 melanoma
[31] = system: SK-OV-3 ovarian
[32] = system: SNB-19 CNS
[33] = system: SNB-75 CNS
[34] = system: SW-620 colon
[35] = system: TK-10 renal
[36] = system: U251 CNS
[37] = system: UACC-62 melanoma
[38] = system: UO-31 renal

Cc1cc(C)nc(SC2=C(Nc3ccc(C)c(Cl)c3)C(=O)N(Cc3ccccc3)C2=O)n1
GI50 [1]: > 160 µM
TGI [1]: > 160 µM
GI50 [2]: > 160 µM
TGI [2]: > 160 µM
GI50 [3]: > 160 µM
TGI [3]: > 160 µM
GI50 [4]: > 160 µM
TGI [4]: > 160 µM
GI50 [5]: > 160 µM
TGI [5]: > 160 µM
GI50 [6]: > 160 µM
TGI [6]: > 160 µM
GI50 [7]: > 160 µM
TGI [7]: > 160 µM
GI50 [8]: > 160 µM
TGI [8]: > 160 µM
GI50 [9]: 1.35 µM
TGI [9]: > 160 µM
GI50 [10]: > 160 µM
TGI [10]: > 160 µM
GI50 [11]: > 160 µM
TGI [11]: > 160 µM
GI50 [12]: > 160 µM
TGI [12]: > 160 µM
GI50 [13]: > 160 µM
TGI [13]: > 160 µM
GI50 [14]: > 160 µM
TGI [14]: > 160 µM
GI50 [15]: > 160 µM
TGI [15]: > 160 µM
GI50 [16]: > 160 µM
TGI [16]: > 160 µM
GI50 [17]: > 160 µM
TGI [17]: > 160 µM
GI50 [18]: > 160 µM
TGI [18]: > 160 µM
GI50 [19]: > 160 µM
TGI [19]: > 160 µM
GI50 [20]: > 160 µM
TGI [20]: > 160 µM
GI50 [21]: > 160 µM
TGI [21]: > 160 µM
GI50 [22]: > 160 µM
TGI [22]: > 160 µM
GI50 [23]: > 160 µM
TGI [23]: > 160 µM
GI50 [24]: > 160 µM
TGI [24]: > 160 µM
GI50 [25]: > 160 µM
TGI [25]: > 160 µM
GI50 [26]: > 160 µM
TGI [26]: > 160 µM
GI50 [27]: > 160 µM
TGI [27]: > 160 µM
GI50 [28]: > 160 µM
TGI [28]: > 160 µM
GI50 [29]: > 160 µM
TGI [29]: > 160 µM
GI50 [30]: > 160 µM
TGI [30]: > 160 µM
GI50 [31]: > 160 µM
TGI [31]: > 160 µM
GI50 [32]: > 160 µM
TGI [32]: > 160 µM
GI50 [33]: > 160 µM
TGI [33]: > 160 µM
GI50 [34]: > 160 µM
TGI [34]: > 160 µM
GI50 [35]: > 160 µM
TGI [35]: > 160 µM
GI50 [36]: > 160 µM
TGI [36]: > 160 µM
GI50 [37]: > 160 µM
TGI [37]: > 160 µM
GI50 [38]: > 160 µM
TGI [38]: > 160 µM
